Data set [1] is described as follows: MTT assay for cytotoxicity. To be noted: human, HepG2.2.15 cells, half (50%) lethal concentration. In kind it is cell-based, Human. As to the method: (§1) Human hepatoblastoma cell line HepG2.2.15 stably transfected with full-length HBV (provided by Shanghai Institute of Materia Medica, Chinese Academy of Sciences)
(§2) HepG2.2.15 cells were cultured and passaged according to conventional methods. DMEM containing 10% (v/v) bovine serum and the selective antibiotic G418 was used as a medium, the cells were cultured in an incubator at 37° C. under 5% CO2 for 8 days (the medium was exchanged on the 4th day).
(§3) The test compounds were formulated with DMSO into a 40 mM stock solution, which was then prepared into a solution at the defined highest concentration using a DMEM medium containing 10% Hyclone™ Fetal Bovine Serum, followed by diluting the same; the positive drug was lamivudine, which was also prepared into a solution at the defined concentration with the DMEM medium containing 10% Hyclone™ Fetal Bovine Serum.
HepG2.2.15 cells were seeded at 5×10^3 cells/well in a 96-well plate, and cultured for eight days in the presence of the compounds according to the above method, and then 200 μl of the supernatant was taken out, followed by addition of the MTT solution. After 4 hours of culture, a lysate was added. After 12 hours of culture, the OD570 was measured on a microplate reader. By comparing with the absorbance of the control well, the percentage of viable cells was calculated, and CC50, the concentration required for the reduction of cell viability by 50%, was calculated.

The next data set has as its system HBV. Description: HBV DNA content in the supernatant of cell culture (real-time PCR). To be noted: Hepatitis B virus, HepG2.2.15, 192 h, inhibition of HBV DNA replication, HepG2.2.15 supernatant, 8 days. In kind it is cell-based, hepatitis B virus (HBV). As to the method: as §1, §2, §3
HepG2.2.15 cells were treated with compounds at different concentrations for 8 days (the medium was exchanged on the 4th day), and the supernatant was aspirated, and the HBV DNA contained in the mature virus particles in the supernatant was quantitated by using a real-time PCR method.
1) The supernatant DNA from a 96-well plate, 200 μl/well, was collected, wherein the contents in the duplicate wells were collected into a same EP tube, and centrifuged at 4000 rcf for 5 min, and the supernatant was collected;
2) 200 μl of the supernatant was added into a 1.5 ml EP tube, added with 20 μl of proteinase K and 200 μl of Buffer AL (Qiagen, DNeasy® Blood & Tissue Kit), vortexed to be mixed thoroughly, and incubated at 56° C. for 10 min;
3) 200 μl of ethanol was added and vortexed to be mixed thoroughly;
4) all the liquid obtained from step 3) was added into a DNeasy Mini spin column (Qiagen, DNeasy® Blood & Tissue Kit) placed in a 2 ml waste liquid collection tube, and centrifuged at 6000 rcf for 1 min, and the supernatant was discarded;
5) the DNeasy Mini spin column was placed in a new 2 ml waste liquid collection tube, added with 500 μl of Buffer AW1 (Qiagen, DNeasy® Blood & Tissue Kit), and centrifuged at 6000 rcf for 1 min, and the supernatant was discarded;
6) the DNeasy Mini spin column was placed in a new 2 ml waste liquid collection tube, added with 500 μl of Buffer AW2, (Qiagen, DNeasy® Blood & Tissue Kit), and centrifuged at 20000 rcf for 3 min, and the supernatant was discarded;
7) the DNeasy Mini spin column was placed in anew 1.5 ml EP tube, 50 μl of Buffer AE (Qiagen, DNeasy® Blood & Tissue Kit) was pipetted and directly applied onto the membrane of the DNeasy Mini spin column, which was then left at room temperature for 5 min, and centrifuged at 6000 rcf for 1 min to elute the DNA from the membrane, the DNeasy Mini spin column was discarded, and the DNA sample was collected and stored at −20° C.
1) Standard curve: 1e^7-1e^4 IU/ml, the sample amount was 1 μl, a blank well was set so as to check whether the reaction system is polluted or not;
2) 1 μl of a DNA sample was added in sequence;
3) Addition of enzyme and reaction buffer: two tubes of the reaction solution were first added into the enzyme, mixed well and centrifuged slightly, placed on ice, added with the sample, followed by addition of 19 μl of the enzyme reaction solution, wherein, during the addition, the DNA sample should be sure of not being touched to cause contamination;
4) the sample was sealed with a sealing film and centrifuged;
Stage 2: 10 cycles • Step 1: 93° C., 45 s • Step 2: 55° C., 1 min Stage 3: 45 cycles • Step 1: 93° C., 30 s • Step 2: 55° C., 45 s
Detection: data were collected after completing the step 2 (55° C., 45 s) of the stage 3.
The experimental data were processed by using the Origin software and IC50 was calculated.

pIC50: −log10 of the molar value. Bounds are passed on as bounds.

Among the data in US11040952B2, “Phthalazinone compound, method for preparation thereof, pharmaceutical composition thereof, and use thereof” (SHANGHAI INSTITUTE OF MATERIA MEDICA, CHINESE ACADEMY OF …, priority 2017, dated 2021) are CC50 and IC50 values, retold here.

In data set [1], `[2H]C([2H])([2H])c1ccc(-c2nn(Cc3ccc(Cl)cc3)c(=O)c3ccccc23)c(F)n1` [Compound I-34] returned a CC50 at 8 days above 100 µM. In the data set on HBV, the pIC50 is 6.70.
The matching figures for `CC(=O)Nc1ccc(-c2nn(Cc3ccc(C#N)cc3)c(=O)c3ccccc23)c(F)n1` [IV-10]: 47.9 µM and 5.77.
Compound `Cc1ccc(-c2nn(Cc3ccc(Cl)cc3)c(=O)c3ccc(C#N)cc23)c(F)n1` [Compound V-7] came in with a 50% cytotoxic concentration (CC50) at 8 days in data set [1] above 100 µM. Besides, the negative logarithm of the IC50 (pIC50) with HBV was 6.05.
The like results for `CS(=O)(=O)CCNc1ccc(-c2nn(Cc3ccc(C#N)cc3)c(=O)c3ccccc23)c(F)n1` [IV-74] were, in that order, above 100 µM and 6.89.
The like results for `COCNc1ccc(-c2nn(Cc3ccc(Cl)cc3)c(=O)c3ccccc23)c(F)n1` [Compound I-15] were, in that order, above 100 µM and 5.21.
`O=c1c2ccccc2c(-c2ccc(NC3CC3)nc2F)nn1Cc1ccc(Cl)cc1` [Compound I-16]: the CC50 at 8 days in data set [1] stood at 20.1 µM. This compound had a pIC50 in the data set with HBV of 6.30.
As for `CCOC(=O)CCCNc1nc(F)c(-c2nn(Cc3ccc(C#N)cc3)c(=O)c3ccccc23)cc1Cl` [IV-36], the CC50 at 8 days in data set [1] is above 100 µM. In the data set with HBV, this compound gave a negative-log IC50 (pIC50) of 6.32.
The matching figures for `O=c1c2ccccc2c(-c2ccc(CN3CCOCC3)nc2F)nn1Cc1ccc(Cl)cc1` [Compound I-29]: above 100 µM and 5.34.
The matching figures for `CS(=O)(=O)CCNc1nc(F)c(-c2nn(Cc3ccc(C#N)cc3)c(=O)c3ccccc23)cc1Cl` [IV-75]: above 100 µM and 7.44.
The matching figures for `CC1(C)OCC(CNc2nc(F)c(-c3nn(Cc4ccc(C#N)cc4)c(=O)c4ccccc34)cc2Cl)O1` (stereo not shown) [IV-79]: above 100 µM and 6.46.
`Cc1cnc(F)c(-c2nn(Cc3ccc(C#N)cc3)c(=O)c3ccccc23)c1` [Compound I-44] registered a CC50 at 8 days in data set [1] of 31.5 µM. This compound also had a pIC50 with HBV of 6.53.
The matching figures for `O=c1c2ccccc2c(-c2cccnc2Cl)nn1Cc1ccc(Cl)cc1` [Compound I-6]: above 100 µM and 5.77.
The matching figures for `N#Cc1ccc(Cn2nc(-c3cc(Cl)cnc3F)c3ccccc3c2=O)cc1` [Compound I-40]: above 100 µM and 7.29.
The like results for `CC(C)(C)OC(=O)NCCCCNc1ccc(-c2nn(Cc3ccc(C#N)cc3)c(=O)c3ccccc23)c(F)n1` [IV-45] were, in that order, above 100 µM and 6.43.
As to `O=c1c2ccccc2c(-c2ccc(N3CCC3)nc2F)nn1Cc1ccc(Cl)cc1` [Compound I-18], the half-maximal cytotoxic concentration (CC50) at 8 days in data set [1] came to 42.9 µM. In the data set on HBV, the pIC50 is 5.92.
`N#Cc1ccc(Cn2nc(-c3cc(Cl)c(N)nc3F)c3ccccc3c2=O)cc1` [IV-30] returned a 50% cytotoxic concentration (CC50) at 8 days in data set [1] of 10.2 µM. In the data set on HBV, this compound had a pIC50 above 7.01.
Take `CC(C)(C)OC(=O)COCCNc1nc(F)c(-c2nn(Cc3ccc(C#N)cc3)c(=O)c3ccccc23)cc1Cl` [IV-59]: in data set [1], the CC50 at 8 days was above 100 µM. Besides, the negative-log IC50 (pIC50) in the data set with HBV was 6.11.
The like results for `[2H]C([2H])(c1ccc(-c2nn(Cc3ccc(Cl)cc3)c(=O)c3ccccc23)c(F)n1)N(C)C` [Compound I-37] were, in that order, 95 µM and 5.57.
The like results for `Cc1ncccc1-c1nn(Cc2ccc(C#N)cc2)c(=O)c2ccccc12` [IV-3] were, in that order, above 100 µM and 5.26.
The like results for `COC(=O)CCCNc1ccc(-c2nn(Cc3ccc(C#N)cc3)c(=O)c3ccccc23)c(F)n1` [IV-64] were, in that order, above 100 µM and 5.91.
`CC(O)CNc1ccc(-c2nn(Cc3ccc(C#N)cc3)c(=O)c3ccccc23)c(F)n1` (stereo not shown) [IV-81] registered a half-maximal cytotoxic concentration (CC50) at 8 days in data set [1] of 65.2 µM. The compound also had a negative-log IC50 (pIC50) in the data set with HBV of 6.48.
The matching figures for `CCNCCNc1nc(F)c(-c2nn(Cc3ccc(C#N)cc3)c(=O)c3ccccc23)cc1Cl` [IV-48]: 7.38 µM and 6.29.
Consider `Cc1cnc(-c2nn(Cc3ccc(Cl)cc3)c(=O)c3ccccc23)cn1` [III-1], for which, in data set [1], the midpoint of cytotoxicity, the CC50 at 8 days, lay at 87.8 µM. This compound gave a pIC50 in the data set on HBV of 5.21.
In data set [1], `[2H]C([2H])(OC)c1ccc(-c2nn(Cc3ccc(Cl)cc3)c(=O)c3ccccc23)c(F)n1` [Compound I-35] yielded a CC50 at 8 days above 100 µM. The compound further gave a negative-log IC50 (pIC50) with HBV of 6.52.
The matching figures for `CN(C)Cc1ccc(-c2nn(Cc3ccc(C#N)cc3)c(=O)c3ccccc23)c(F)n1` [IV-21]: above 100 µM and 5.89.
For `CCOCCOCCNc1ccc(-c2nn(Cc3ccc(C#N)cc3)c(=O)c3ccccc23)c(F)n1` [IV-56], the CC50 at 8 days in data set [1] was above 100 µM. In addition, in the data set with HBV, the negative logarithm of the IC50 (pIC50) was 6.67.
The matching figures for `CCOC(=O)CNc1ccc(-c2nn(Cc3ccc(C#N)cc3)c(=O)c3ccccc23)c(F)n1` [IV-34]: above 100 µM and 4.80.
The matching figures for `CCOC(=O)CCNc1ccc(-c2nn(Cc3ccc(C#N)cc3)c(=O)c3ccccc23)c(F)n1` [IV-70]: above 100 µM and 5.48.
In data set [1], `CCOCCNc1ccc(-c2nn(Cc3ccc(C#N)cc3)c(=O)c3ccccc23)c(F)n1` [IV-41] displayed a CC50 at 8 days above 100 µM. This compound had a negative logarithm of the IC50 (pIC50) with HBV of 6.49.
The matching figures for `CCNCCCCNc1nc(F)c(-c2nn(Cc3ccc(C#N)cc3)c(=O)c3ccccc23)cc1Cl` [IV-55]: 2.56 µM and 7.05.
For the compound `CC(C)(C)Nc1ccc(-c2nn(Cc3ccc(C#N)cc3)c(=O)c3ccccc23)c(F)n1` [IV-12], the CC50 at 8 days in data set [1] was determined as 46.3 µM. The same compound had a pIC50 with HBV of 5.43.
The matching figures for `COc1ccc2c(=O)n(Cc3ccc(Cl)cc3)nc(-c3ccc(C)nc3F)c2c1` [Compound V-5]: above 100 µM and 5.43.
`O=c1c2ccccc2c(-c2ccc(CO)nc2F)nn1Cc1ccc(Cl)cc1` [Compound I-22]: in data set [1], the CC50 at 8 days was above 100 µM. The compound also had a pIC50 in the data set with HBV of 6.40.
On to `Cc1ccc2c(=O)n(Cc3ccc(Cl)cc3)nc(-c3ccc(C)nc3F)c2c1` [Compound V-3], for which, in data set [1], the CC50 at 8 days is above 100 µM. The pIC50 in the data set with HBV is 5.82.
Take `Cc1ncccc1-c1nn(Cc2ccc(Cl)cc2)c(=O)c2ccccc12` [Compound I-7]: half-maximal cytotoxicity in data set [1] (CC50 at 8 days) was put at 48.9 µM. In the data set on HBV, this compound had a negative logarithm of the IC50 (pIC50) of 5.42.
Regarding `O=c1c2ccccc2c(-c2ccc(C(F)(F)F)nc2F)nn1Cc1ccc(Cl)cc1` [Compound I-19], half-maximal cytotoxicity in data set [1] (CC50 at 8 days) was put at 77.5 µM. The same compound had a pIC50 with HBV of 6.70.
As to `N#Cc1ccc(Cn2nc(-c3cc(Cl)c(NCCC(=O)O)nc3F)c3ccccc3c2=O)cc1` [IV-63], in data set [1], the CC50 at 8 days was above 100 µM. Further, the negative-log IC50 (pIC50) in the data set with HBV is 6.58.
The matching figures for `Cc1ncc(-c2nn(Cc3ccc(Cl)cc3)c(=O)c3ccccc23)cn1` [II-4]: 97.6 µM and 5.15.
The like results for `N#Cc1ccc(Cn2nc(-c3cccnc3F)c3ccccc3c2=O)cc1` [IV-2] were, in that order, above 100 µM and 5.93.
The matching figures for `O=c1c2ccccc2c(-c2ccc(NCC3CCOCC3)nc2F)nn1Cc1ccc(Cl)cc1` [Compound I-30]: above 100 µM and 6.40.
Consider `CC(=O)OCc1ccc(-c2nn(Cc3ccc(C#N)cc3)c(=O)c3ccccc23)c(F)n1` [IV-23], for which the CC50 at 8 days in data set [1] was above 100 µM. For the same compound, the pIC50 with HBV was 5.35.
